Laboratory results taken from patent publication US6362369B1, “Phthalic acid diamide derivatives fluorine-containing aniline compounds as starting material, agricultural and horticultural insecticides, and a method for application of the insecticides” (Nihon Nohyaku Co., Ltd., priority 1997, dated 2002).

Experiments:
Format in all cases: in vivo
[1] = system: diamondback moth (Plutella xylostella); experiment: Insecticidal effect on diamondback moth (Test Example 1); settings: for Insecticidal effect, Test Example 1 / Insecticidal effect (Test Example 1), judged from mortality: diamondback moth; for Insecticidal effect on diamondback moth (Test Example 1), judged grade: mortality judged according to the criterion shown in Test Example 1; for Insecticidal effect (Test Example 1), judged from mortality: judged by the criterion of Test Example 1
In short: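 Triplicate groups of 10 insects were scored: six days after immersion of oviposited Chinese cabbage seedlings and holding at 25 °C post air-drying, hatched larvae were counted. Mortality derived from these counts and insecticidal effect judged by a set criterion.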

[2] = system: common cutworm (Spodoptera Litura); experiment: Insecticidal effect on common cutworm (Test Example 2); settings: 500 ppm, 25° C.; for Insecticidal effect, Test Example 2: cabbage leaf immersed; for Insecticidal effect, Test Example 2 / Insecticidal effect on common cutworm (Test Example 2), judged grade: eight days after inoculation; for Insecticidal effect on common cutworm (Test Example 2), judged grade / Insecticidal effect (Test Example 2), judged from mortality: cabbage leaf dip; for Insecticidal effect on common cutworm (Test Example 2), judged grade: second-instar larvae; for Insecticidal effect (Test Example 2), judged from mortality: 8 days after inoculation
In short: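 Mortality is the read-out: larvae are counted as dead or alive on day 8 and the percentage is graded by an effect criterion. Second-instar larvae are kept with the air-dried treated material in a sealed dish at 25° C, in triplicate groups of ten.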

[3] = system: rice leafroller (Cnaphalocrocis medinalis); experiment: Insecticidal effect on rice leafroller (Test Example 3); settings: 500 ppm, 25° C., humidity 70%; for Insecticidal effect, Test Example 3: rice lamina immersed; for Insecticidal effect, Test Example 3 / Insecticidal effect on rice leafroller (Test Example 3), judged grade: four days after inoculation; for Insecticidal effect on rice leafroller (Test Example 3), judged grade / Insecticidal effect (Test Example 3), judged from mortality: rice lamina dip; for Insecticidal effect on rice leafroller (Test Example 3), judged grade: third-instar larvae; for Insecticidal effect (Test Example 3), judged from mortality: 4 days after inoculation
In short: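 Insecticidal effect is judged by a predefined criterion from dead/alive counts four days after infesting air-dried lamina with third-instar larvae, kept on moistened filter paper at 25° C, 70% humidity.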

[4] = mortality judged by criterion of Test Example 1
[5] = common cutworm second-instar larvae
[6] = rice leafroller third-instar larvae
[7] = judged by the mortality criterion of Test Example 1
[8] = second-instar larvae of common cutworm
[9] = third-instar larvae of rice leafroller

CC(C)NC(=O)c1c(I)cccc1C(=O)Nc1ccc(C(F)(F)C(F)(F)F)cc1C(F)(F)F [compound 1387]
Insecticidal effect, Test Example 1 [1, 4]: A (100)
Insecticidal effect, Test Example 2 [2, 5]: A (100)
Insecticidal effect, Test Example 3 [3, 6]: A (100)

Cc1c(NC(=O)c2cccc([N+](=O)[O-])c2C(=O)NC(C)C)cccc1OC(F)F [compound 695]
Insecticidal effect on diamondback moth (Test Example 1), judged grade [1]: A (100)
Insecticidal effect on common cutworm (Test Example 2), judged grade [2]: A (100)
Insecticidal effect on rice leafroller (Test Example 3), judged grade [3]: A (100)

Cc1cc(C(F)(F)C(F)(F)F)ccc1NC(=O)c1cccc(I)c1C(=O)N(C)C [compound 1068]
Insecticidal effect, Test Example 1 [1, 4]: A (100)
Insecticidal effect, Test Example 2 [2, 5]: A (100)
Insecticidal effect, Test Example 3 [3, 6]: A (100)

CCCNC(=O)c1cccc(Cl)c1C(=O)Nc1cc(-c2ccccc2)ccc1OC [compound 1297]
Insecticidal effect, Test Example 1 [1, 4]: A (100)
Insecticidal effect, Test Example 2 [2, 5]: A (100)
Insecticidal effect, Test Example 3 [3, 6]: A (100)

CCNC(=O)c1c(I)cccc1C(=O)Nc1ccc(OC(F)(F)C(F)F)cc1C [compound 1056]
Insecticidal effect, Test Example 1 [1, 4]: A (100)
Insecticidal effect, Test Example 2 [2, 5]: A (100)
Insecticidal effect, Test Example 3 [3, 6]: A (100)

Cc1cc(OC(F)(F)C(F)(Cl)Cl)ccc1NC(=O)c1cccc(Cl)c1C(=O)NC(C)C [compound 145]
Insecticidal effect, Test Example 1 [1, 7]: A (100)
Insecticidal effect, Test Example 2 [2, 8]: A (100)
Insecticidal effect, Test Example 3 [3, 9]: A (100)

CC(C)NC(=O)c1c(F)cccc1C(=O)Nc1ccc(OC(F)(F)F)cc1Cl [compound 508]
Insecticidal effect on diamondback moth (Test Example 1), judged grade [1]: A (100)
Insecticidal effect on common cutworm (Test Example 2), judged grade [2]: B (99-90)
Insecticidal effect on rice leafroller (Test Example 3), judged grade [3]: A (100)

CCN(CC)C(=O)c1c(Cl)cccc1C(=O)Nc1ccc(OC(F)(F)F)cc1C [compound 1536]
Insecticidal effect (Test Example 1), judged from mortality [1]: A (100)
Insecticidal effect (Test Example 2), judged from mortality [2, 8]: A (100)
Insecticidal effect (Test Example 3), judged from mortality [3, 9]: A (100)

CCOCCN(CCOCC)C(=O)c1c(I)cccc1C(=O)Nc1ccc(C(F)(F)C(F)(F)F)cc1C [compound 1046]
Insecticidal effect, Test Example 1 [1, 4]: A (100)
Insecticidal effect, Test Example 2 [2, 5]: A (100)
Insecticidal effect, Test Example 3 [3, 6]: A (100)

Cc1cc(C(F)(F)C(F)(F)F)cc(C)c1NC(=O)c1cccc(I)c1C(=O)NC(C)C [compound 1717]
Insecticidal effect (Test Example 1), judged from mortality [1]: A (100)
Insecticidal effect (Test Example 2), judged from mortality [2, 8]: A (100)
Insecticidal effect (Test Example 3), judged from mortality [3, 9]: A (100)

CC(C)NC(=O)c1ccccc1C(=O)Nc1ccc(OC(F)(F)F)cc1 [compound 29]
Insecticidal effect, Test Example 1 [1, 7]: A (100)
Insecticidal effect, Test Example 2 [2, 8]: B (99-90)
Insecticidal effect, Test Example 3 [3, 9]: A (100)

Cc1cc(Oc2ncc(C(F)(F)F)cc2Cl)ccc1NC(=O)c1ccccc1C(=O)NC(C)C [compound 79]
Insecticidal effect, Test Example 1 [1, 7]: A (100)
Insecticidal effect, Test Example 2 [2, 8]: A (100)
Insecticidal effect, Test Example 3 [3, 9]: D (79-50)

CC(C)NC(=O)c1c(I)cccc1C(=O)Nc1ccc([S+]([O-])C(F)(F)Br)cc1 (stereo not drawn) [compound 1113]
Insecticidal effect, Test Example 1 [1, 4]: A (100)
Insecticidal effect, Test Example 2 [2, 5]: A (100)
Insecticidal effect, Test Example 3 [3, 6]: A (100)

Cc1cc(Cl)ccc1NC(=O)c1c(Cl)cccc1C(=O)NC(C)C [compound 214]
Insecticidal effect, Test Example 1 [1, 7]: A (100)
Insecticidal effect, Test Example 2 [2, 8]: A (100)
Insecticidal effect, Test Example 3 [3, 9]: A (100)

Cc1cc(SC(F)(F)C(F)(F)C(F)(F)F)ccc1NC(=O)c1cccc(I)c1C(=O)NC(C)C [compound 403]
Insecticidal effect, Test Example 1 [1, 7]: A (100)
Insecticidal effect, Test Example 2 [2, 8]: B (99-90)
Insecticidal effect, Test Example 3 [3, 9]: A (100)

Cc1cc(C(F)(F)C(F)(F)F)ccc1NC(=O)c1c(Cl)cccc1C(=O)NC(C)C [compound 223]
Insecticidal effect, Test Example 1 [1, 7]: A (100)
Insecticidal effect, Test Example 2 [2, 8]: A (100)
Insecticidal effect, Test Example 3 [3, 9]: A (100)

Cc1cc(OC(F)(F)C(F)(F)Br)ccc1NC(=O)c1cccc(F)c1C(=O)NC(C)C [compound 503]
Insecticidal effect on diamondback moth (Test Example 1), judged grade [1]: A (100)
Insecticidal effect on common cutworm (Test Example 2), judged grade [2]: B (99-90)
Insecticidal effect on rice leafroller (Test Example 3), judged grade [3]: A (100)

CCC(C)(C)NC(=O)c1c(F)cccc1C(=O)Nc1ccc(OC(F)(F)F)cc1C [compound 1154]
Insecticidal effect, Test Example 1 [1, 4]: A (100)
Insecticidal effect, Test Example 2 [2, 5]: C (89-80)
Insecticidal effect, Test Example 3 [3, 6]: A (100)

Cc1cc(C#N)ccc1NC(=O)c1cccc(Cl)c1C(=O)NC(C)C [compound 1330]
Insecticidal effect, Test Example 1 [1, 4]: A (100)
Insecticidal effect, Test Example 2 [2, 5]: A (100)
Insecticidal effect, Test Example 3 [3, 6]: A (100)

CNC(=O)c1c(I)cccc1C(=O)Nc1ccc(C(F)(F)C(F)(F)F)cc1C [compound 1311]
Insecticidal effect, Test Example 1 [1, 4]: A (100)
Insecticidal effect, Test Example 2 [2, 5]: A (100)
Insecticidal effect, Test Example 3 [3, 6]: A (100)

Cc1cc(C(F)(F)C(F)(F)F)ccc1NC(=O)c1cccc(Cl)c1C(=O)NC(C)(C)c1ccc(Cl)cc1 [compound 1484]
Insecticidal effect (Test Example 1), judged from mortality [1]: A (100)
Insecticidal effect (Test Example 2), judged from mortality [2, 8]: A (100)
Insecticidal effect (Test Example 3), judged from mortality [3, 9]: A (100)

CCC(C)NC(=O)c1c(I)cccc1C(=O)Nc1ccc(C(F)(F)C(F)(F)F)cc1C (stereo not drawn) [compound 1007]
Insecticidal effect, Test Example 1 [1, 4]: A (100)
Insecticidal effect, Test Example 2 [2, 5]: A (100)
Insecticidal effect, Test Example 3 [3, 6]: A (100)

Cc1cc(C(F)(F)C(F)(F)F)ccc1NC(=O)c1cccc(I)c1C(=O)NC(C)(C)CBr [compound 1647]
Insecticidal effect (Test Example 1), judged from mortality [1]: A (100)
Insecticidal effect (Test Example 2), judged from mortality [2, 8]: A (100)
Insecticidal effect (Test Example 3), judged from mortality [3, 9]: A (100)

Cc1cc(C(F)(C(F)(F)F)C(F)(F)F)ccc1NC(=O)c1cccc(Cl)c1C(=O)NC(C)(C)C [compound 1038]
Insecticidal effect, Test Example 1 [1, 4]: A (100)
Insecticidal effect, Test Example 2 [2, 5]: A (100)
Insecticidal effect, Test Example 3 [3, 6]: A (100)

Cc1cc(OC(F)F)ccc1NC(=O)c1cccc(S(C)(=O)=O)c1C(=O)NC(C)C [compound 795]
Insecticidal effect on diamondback moth (Test Example 1), judged grade [1]: A (100)
Insecticidal effect on common cutworm (Test Example 2), judged grade [2]: B (99-90)
Insecticidal effect on rice leafroller (Test Example 3), judged grade [3]: A (100)

Cc1c(F)cccc1NC(=O)c1c(F)cccc1C(=O)NC(C)C [compound 548]
Insecticidal effect on diamondback moth (Test Example 1), judged grade [1]: A (100)
Insecticidal effect on common cutworm (Test Example 2), judged grade [2]: A (100)
Insecticidal effect on rice leafroller (Test Example 3), judged grade [3]: A (100)

CCNC(=O)c1c(C(=O)Nc2ccc(OC(F)F)cc2C)cccc1[N+](=O)[O-] [compound 11]
Insecticidal effect, Test Example 1 [1, 7]: A (100)
Insecticidal effect, Test Example 2 [2, 8]: C (89-80)
Insecticidal effect, Test Example 3 [3, 9]: C (89-80)

COc1ccc(-c2ccccc2)cc1NC(=O)c1cccc(Cl)c1C(=O)NC(C)C [compound 1296]
Insecticidal effect, Test Example 1 [1, 4]: A (100)
Insecticidal effect, Test Example 2 [2, 5]: A (100)
Insecticidal effect, Test Example 3 [3, 6]: A (100)

Cc1ccc(Cl)cc1NC(=O)c1cccc(F)c1C(=O)NC(C)C [compound 491]
Insecticidal effect on diamondback moth (Test Example 1), judged grade [1]: A (100)
Insecticidal effect on common cutworm (Test Example 2), judged grade [2]: A (100)
Insecticidal effect on rice leafroller (Test Example 3), judged grade [3]: A (100)

CC(C)NC(=O)c1c(Cl)cccc1C(=O)Nc1cc2c(cc1Cl)OC(F)(F)O2 [compound 1623]
Insecticidal effect (Test Example 1), judged from mortality [1]: A (100)
Insecticidal effect (Test Example 2), judged from mortality [2, 8]: C (89-80)
Insecticidal effect (Test Example 3), judged from mortality [3, 9]: A (100)

Cc1cc(C(F)(C(F)(F)F)C(F)(F)F)ccc1NC(=O)c1cccc(C(F)(F)F)c1C(=O)NC(C)C [compound 1207]
Insecticidal effect, Test Example 1 [1, 4]: A (100)
Insecticidal effect, Test Example 2 [2, 5]: A (100)
Insecticidal effect, Test Example 3 [3, 6]: A (100)
